{
  "source": "paper PMC12005472",
  "about": "(Chemmedchem, 2025)",
  "key": {"Asp25": {"target": "Asp25 (UniProt position 93, KEALLDTGADD)", "settings": "cited from earlier work"}, "Endothiapepsin (EP) [1]": {"system": "Endothiapepsin (EP)", "settings": "in words; ref not given; cited from earlier work"}, "Endothiapepsin (EP) [2]": {"system": "Endothiapepsin (EP)", "settings": "ITC; 80 μM EP, 1200 μM pepA, 20 mM buffer (ACES, Cacodylate, HEPES, Phosphate, TRIS), 16 °C, pH 7.0; ref 12 (Gómez and Freire); cited from earlier work"}, "Endothiapepsin (EP) [3]": {"system": "Endothiapepsin (EP)", "from_the_text": "The total proton exchange ( ΔnH^+ ) in a binding event can be determined by ITC measurements in different buffers with distinct heats of ionization ( ΔHionization ), according to the Eq. 1: (1) ΔHobserved=ΔHcorrected+ΔnH^+(ΔHionization)\nIntegrating the raw thermograms yields the experimentally observed enthalpies ( ΔHobserved ), which can be used for a linear regression with the slope corresponding to ΔnH^+ and the y‐axis intercept corresponding to the buffer‐corrected enthalpy of the binding reaction ( ΔHcorrected ).\nFigure 3 Left: Calculation of the heat of ionization. The experimentally observed enthalpies ΔHobs are plotted against the heat of ionization ΔHion of the respective buffers (phosphate: 3.60 kJ mol^−1 ADA: 12.23 kJ mol^−1, HEPES: 20.04 kJ mol^−1, TRIS: 47.45 kJ mol^−1).[14] […] Right: Thermodynamic profiles of complex formation in phosphate, ADA, HEPES and TRIS buffers and the buffer‐corrected thermodynamic profile. For the buffer‐corrected profile, the change in Gibbs free energy ΔG is calculated as the average of ΔG observed in the four buffers, ΔH is obtained as described above, and the entropic contribution − TΔS is calculated from the numerical difference between ΔG and ΔH .\nCacodylate was excluded as a buffering agent due to its toxicity. […] 2.5 % (v/v) DMSO corresponds to a molar concentration of 0.35 M.\nEach parameter alone can have a clear effect on the thermodynamic properties.[11] We used the MicroCal PEAQ‐ITC Automated ITC with a cell volume of 200 μL; 25 °C is a standard temperature, where most of the experiments are carried out, not only ITC. We followed standard protocols for protein, ligand, and buffer concentrations.[16]\nThe dialysis was performed in a 600 mL beaker. The membrane of the cassette was soaked in the dialysis buffer for 2 min by holding it (with gloves) in the beaker filled with dialysis buffer at pH 7.0 (TRIS, ADA, HEPES and phosphate, respectively). After pre‐soaking, the cassette was carefully dried with a paper towel to prevent buffer from entering the cassette, but without touching the membranes. 3 mL of at least 4 mg mL^−1 protein solution was added to the cassette using a 200 μL micropipette. When the cassette was closed with the stopper, any remaining air was gently evacuated from the dialysis chamber. The protein was then dialyzed against 500 mL of dialysis buffer for 2 hours at RT with slow stirring. The buffer was then replaced with 500 mL of fresh buffer and stirred again for 2 hours at RT. After another change of buffer, the dialysate was stored in the refrigerator overnight (12–20 hours). The next day, the protein solution was removed using a syringe with a long cannula. The protein was stored on ice before being shock frozen in liquid nitrogen to determine the concentration using NanoDrop™ 2000c (Thermo Scientific, USA).\nITC measurements were performed using the MicroCal PEAQ‐ITC Automated ITC (Malvern Panalytical, Worcestershire, UK). […] For the reference titration, the same titrant was titrated into the buffer solution. The obtained thermogram peaks of all titrations were integrated and fitted with MicroCal PEAQ‐ITC Analysis Software 1.41."}, "[4]": {"system": "HIV-1 protease (HIV-1 PR)", "design": "method as in PMID 1883831", "settings": "experiment; cited from earlier work"}},
  "note": "Where two headings read alike, the source gives them in different places.",
  "data": [
    {"substance": "HIV-1 protease (Human immunodeficiency virus 1)", "values": [
      {"measurement": "pKa", "setting": "Asp25", "result": 3.1},
      {"measurement": "pKa", "setting": "Asp25; record 2", "result": 5.2}
    ]},
    {"substance": "Iva‐Val‐Val‐Sta‐Ala‐Sta [pepA]", "values": [
      {"measurement": "pH dependence of affinity", "setting": "Endothiapepsin (EP) [1]", "result": "becomes higher at more acidic pH"},
      {"measurement": "proton exchange ΔnH^+ previously published", "setting": "Endothiapepsin (EP) [2]", "result": "1.1±0.1", "unit": "protons"},
      {"measurement": "proton uptake upon pepA binding to EP, in words", "setting": "Endothiapepsin (EP) [3]", "result": "uptake of more than one mole of protons"},
      {"measurement": "total proton exchange ΔnH^+ (proton uptake per binding reaction)", "setting": "Endothiapepsin (EP) [3]; ITC, slope of ΔHobs vs ΔHionization in phosphate, ADA, HEPES, TRIS, pH 7.0, 25 °C, 50 μM EP, 500 μM pepA, 100 mM buffer, 2.5 % DMSO, 0.1 % Tween20, on average", "result": "1.67±0.12 protons per binding reaction"},
      {"measurement": "enthalpic contribution (ΔHobserved) in TRIS", "setting": "Endothiapepsin (EP) [3]; TRIS buffer 100 mM, pH 7.0, 25 °C, 2.5 % DMSO, 0.1 % Tween20", "result": "7.34 ± 0.693", "unit": "kcal/mol"},
      {"measurement": "overall proton uptake", "setting": "Endothiapepsin (EP) [3]; pH 7", "result": "1.67±0.12 moles of protons"},
      {"measurement": "total proton exchange ΔnH^+ (proton uptake)", "setting": "Endothiapepsin (EP) [3]; pH 7", "result": "1.67 ± 0.12", "unit": "mol"},
      {"measurement": "buffer-corrected enthalpy of the binding reaction ΔHcorrected", "setting": "Endothiapepsin (EP) [3]; y-axis intercept of ΔHobs vs ΔHion in phosphate, ADA, HEPES, TRIS, pH 7.0, 25 °C", "result": -12.7, "unit": "kcal/mol"}
    ]},
    {"substance": "HIV‐1 PR: HIV-1 protease, an aspartic protease, used to calibrate the Poisson-Boltzmann methodology", "values": [
      {"measurement": "pKa of Asp25", "setting": "[4]", "result": 3.1},
      {"measurement": "pKa of Asp25’", "setting": "[4]", "result": 5.2}
    ]}
  ]
}
